From ChEMBL document CHEMBL1201862, “PubChem BioAssay data set” (2004)
Active and inactive are the calls of the source.

Legend:
[1] = molecular target: T1, Insulin-degrading enzyme (Homo sapiens, UniProt P14735); test: activators of recombinant IDE enzyme, dose response, counter-screen for IDE activator project, biochemical, fluorescence polarization (AID 588681)
T1 sequence (P14735 whole entry): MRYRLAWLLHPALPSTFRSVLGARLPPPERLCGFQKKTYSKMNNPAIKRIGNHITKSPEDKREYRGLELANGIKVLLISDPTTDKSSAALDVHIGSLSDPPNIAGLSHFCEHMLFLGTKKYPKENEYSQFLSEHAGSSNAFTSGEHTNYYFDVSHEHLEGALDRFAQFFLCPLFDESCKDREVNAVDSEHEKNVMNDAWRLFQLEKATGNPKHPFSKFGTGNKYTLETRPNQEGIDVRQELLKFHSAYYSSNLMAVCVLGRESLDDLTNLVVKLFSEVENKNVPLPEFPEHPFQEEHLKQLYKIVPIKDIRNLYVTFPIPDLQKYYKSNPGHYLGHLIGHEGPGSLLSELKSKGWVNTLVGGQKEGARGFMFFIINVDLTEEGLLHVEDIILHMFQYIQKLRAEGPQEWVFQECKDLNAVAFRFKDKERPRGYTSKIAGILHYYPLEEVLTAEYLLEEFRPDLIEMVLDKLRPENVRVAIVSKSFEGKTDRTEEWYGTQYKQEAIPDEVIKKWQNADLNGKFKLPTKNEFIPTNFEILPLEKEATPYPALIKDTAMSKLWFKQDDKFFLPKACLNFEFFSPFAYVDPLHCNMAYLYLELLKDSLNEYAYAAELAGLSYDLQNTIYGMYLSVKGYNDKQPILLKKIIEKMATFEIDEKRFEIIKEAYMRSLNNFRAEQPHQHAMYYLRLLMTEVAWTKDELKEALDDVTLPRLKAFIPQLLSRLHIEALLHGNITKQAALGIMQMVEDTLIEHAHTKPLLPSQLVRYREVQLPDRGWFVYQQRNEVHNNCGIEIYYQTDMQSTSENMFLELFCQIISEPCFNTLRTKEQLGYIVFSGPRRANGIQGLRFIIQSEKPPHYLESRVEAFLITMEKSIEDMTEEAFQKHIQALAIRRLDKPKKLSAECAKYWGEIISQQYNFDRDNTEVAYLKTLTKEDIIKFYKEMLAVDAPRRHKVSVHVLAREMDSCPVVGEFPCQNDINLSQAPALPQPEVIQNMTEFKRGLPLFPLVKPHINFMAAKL

[2] = molecular target: T1, Insulin-degrading enzyme; test: activators of endogenous IDE in HEK cells, dose response, cell-based, fluorescence polarization (AID 588439); assay type: functional
[3] = test system: HEK293; test: HEK cell cytotoxicity by LDH release, dose response, cytotoxicity control for IDE activator project, fluorescence, HEK cells (AID 588440); assay type: functional, cell-based; conditions: Homo sapiens;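 also: cytotoxicity by LDH release measuring loss of membrane integrity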
[4] = test system: HEK293; test: optical interference in Abeta FP readout, dose response, artefact control for IDE activator project, biochemical, fluorescence polarization (AID 588442); assay type: functional, cell-based; conditions: Homo sapiens
[5] = molecular target: Cytochrome P450 2D6 (Homo sapiens, UniProt P10635);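 also: CYP2D6 member of a cytochrome P450 panel assay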
Cytochrome P450 2D6, sequence (P10635 whole entry): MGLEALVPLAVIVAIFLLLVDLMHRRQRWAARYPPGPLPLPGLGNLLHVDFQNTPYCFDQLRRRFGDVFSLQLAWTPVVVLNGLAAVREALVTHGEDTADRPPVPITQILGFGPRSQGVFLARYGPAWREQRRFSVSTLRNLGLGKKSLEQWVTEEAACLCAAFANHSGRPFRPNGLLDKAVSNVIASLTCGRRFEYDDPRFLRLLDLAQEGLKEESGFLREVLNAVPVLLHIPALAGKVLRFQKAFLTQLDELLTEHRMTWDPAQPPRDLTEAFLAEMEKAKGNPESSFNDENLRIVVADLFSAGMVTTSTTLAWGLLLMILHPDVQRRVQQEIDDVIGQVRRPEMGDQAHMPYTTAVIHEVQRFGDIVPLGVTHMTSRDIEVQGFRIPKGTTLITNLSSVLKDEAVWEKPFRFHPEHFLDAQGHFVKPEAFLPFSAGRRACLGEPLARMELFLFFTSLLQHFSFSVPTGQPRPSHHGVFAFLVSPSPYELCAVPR

[6] = molecular target: Cytochrome P450 3A4 (Homo sapiens, UniProt P08684);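 also: CYP3A4 tested as one member of a cytochrome P450 panel screen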
Cytochrome P450 3A4, sequence (P08684 whole entry): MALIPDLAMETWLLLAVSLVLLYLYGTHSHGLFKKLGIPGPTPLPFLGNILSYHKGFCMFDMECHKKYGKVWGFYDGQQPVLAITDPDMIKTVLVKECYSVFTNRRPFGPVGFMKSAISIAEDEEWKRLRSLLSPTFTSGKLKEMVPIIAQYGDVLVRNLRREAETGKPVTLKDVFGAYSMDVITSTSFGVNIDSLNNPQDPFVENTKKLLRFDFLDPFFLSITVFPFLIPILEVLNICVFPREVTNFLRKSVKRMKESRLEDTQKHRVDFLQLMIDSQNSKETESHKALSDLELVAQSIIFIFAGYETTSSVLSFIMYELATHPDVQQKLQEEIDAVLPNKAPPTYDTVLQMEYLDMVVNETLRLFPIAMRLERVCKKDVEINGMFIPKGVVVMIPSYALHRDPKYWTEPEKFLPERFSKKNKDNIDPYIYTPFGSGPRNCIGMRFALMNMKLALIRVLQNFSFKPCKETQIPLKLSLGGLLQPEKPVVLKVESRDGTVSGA

[7] = inhibitors of firefly luciferase expression or activity, dose response, H4 neuroglioma cells, luminescence (AID 1990); assay type: functional, cell-based
[8] = test system: Streptococcus sp. 'group A'; test: growth inhibition of control SK(-) GAS strain, dose response, counter-screen for streptokinase expression inhibitor project, luminescence, kanamycin, BacTiterGlo, confirmation (AID 1900); assay type: functional, organism-based
[9] = Luminescence Cell-Based Dose Response HTS to Identify Inhibitors of 5'UTR Stem-Loop Driven Prion Protein mRNA Translation in H4 Neuroglioblastoma Cells. [Related pubchem assays: 1827 (Project Summary), 1813 (Primary HTS)]; assay type: functional
[10] = molecular target: Beta-galactosidase (Escherichia coli, UniProt Q8VNN2); test: PubChem AID 485352; assay type: functional
Beta-galactosidase, sequence (Q8VNN2 whole entry): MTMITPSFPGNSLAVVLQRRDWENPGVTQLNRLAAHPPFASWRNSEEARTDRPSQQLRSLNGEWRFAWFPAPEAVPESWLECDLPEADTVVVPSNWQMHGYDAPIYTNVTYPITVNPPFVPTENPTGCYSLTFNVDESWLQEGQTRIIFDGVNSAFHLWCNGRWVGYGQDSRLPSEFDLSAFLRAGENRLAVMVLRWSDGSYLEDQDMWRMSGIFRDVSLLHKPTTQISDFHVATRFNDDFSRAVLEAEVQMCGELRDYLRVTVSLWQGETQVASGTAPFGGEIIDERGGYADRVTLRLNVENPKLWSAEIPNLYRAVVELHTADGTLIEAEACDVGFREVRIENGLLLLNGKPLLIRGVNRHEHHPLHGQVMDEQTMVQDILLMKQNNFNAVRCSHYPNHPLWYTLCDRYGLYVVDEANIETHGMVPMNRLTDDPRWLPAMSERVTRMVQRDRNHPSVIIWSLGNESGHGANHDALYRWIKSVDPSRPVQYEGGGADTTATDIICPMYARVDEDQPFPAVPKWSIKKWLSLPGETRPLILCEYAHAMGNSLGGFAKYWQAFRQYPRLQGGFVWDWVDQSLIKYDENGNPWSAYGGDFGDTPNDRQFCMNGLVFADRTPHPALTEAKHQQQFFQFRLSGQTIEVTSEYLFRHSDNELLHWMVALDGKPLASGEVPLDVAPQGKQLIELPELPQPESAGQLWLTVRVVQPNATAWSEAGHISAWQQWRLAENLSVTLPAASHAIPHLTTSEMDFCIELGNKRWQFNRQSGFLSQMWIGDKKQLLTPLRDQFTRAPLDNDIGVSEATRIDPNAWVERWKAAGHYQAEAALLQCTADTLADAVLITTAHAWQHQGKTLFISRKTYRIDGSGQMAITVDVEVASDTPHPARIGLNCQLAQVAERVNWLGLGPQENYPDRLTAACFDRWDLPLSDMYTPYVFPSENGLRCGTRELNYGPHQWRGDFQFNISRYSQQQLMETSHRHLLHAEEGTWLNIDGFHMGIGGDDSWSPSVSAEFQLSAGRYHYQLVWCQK

[11] = inhibitors of SNCA 5'UTR-driven reporter translation, confirmation, H4 neuroglioma cells, luminescence (AID 1988); assay type: functional, cell-based
[12] = molecular target: T2, Streptokinase A (Streptococcus pyogenes serotype M1, UniProt P10520); test: S. pyogenes streptokinase expression inhibitors, potency, dose response, plasminogen activation absorbance, OD405 (AID 1914); assay type: functional, Streptococcus pyogenes M1 GAS;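 also: secreted streptokinase activity via plasminogen activation per viability signal from cell pellet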
T2 sequence (P10520 whole entry): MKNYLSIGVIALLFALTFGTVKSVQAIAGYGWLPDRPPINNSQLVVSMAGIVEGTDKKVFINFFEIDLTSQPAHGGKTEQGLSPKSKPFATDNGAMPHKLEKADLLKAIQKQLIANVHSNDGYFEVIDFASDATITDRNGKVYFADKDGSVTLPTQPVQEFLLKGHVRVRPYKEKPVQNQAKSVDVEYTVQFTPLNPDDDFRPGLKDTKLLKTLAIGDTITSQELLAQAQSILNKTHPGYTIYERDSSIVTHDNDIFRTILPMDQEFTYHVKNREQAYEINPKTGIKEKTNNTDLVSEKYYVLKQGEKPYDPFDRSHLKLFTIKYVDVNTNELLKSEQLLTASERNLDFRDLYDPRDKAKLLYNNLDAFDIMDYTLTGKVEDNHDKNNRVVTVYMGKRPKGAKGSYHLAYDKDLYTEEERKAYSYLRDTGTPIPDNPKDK

[13] = molecular target: T3, Type-1 angiotensin II receptor (Homo sapiens, UniProt P30556); test: AT1 receptor antagonists, dose response, selectivity assay for APJ receptor antagonist project, cell-based, uHTS hits (AID 463214); assay type: functional;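 also: antagonist potency against angiotensin II stimulated AT1 response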
T3 sequence (P30556 whole entry): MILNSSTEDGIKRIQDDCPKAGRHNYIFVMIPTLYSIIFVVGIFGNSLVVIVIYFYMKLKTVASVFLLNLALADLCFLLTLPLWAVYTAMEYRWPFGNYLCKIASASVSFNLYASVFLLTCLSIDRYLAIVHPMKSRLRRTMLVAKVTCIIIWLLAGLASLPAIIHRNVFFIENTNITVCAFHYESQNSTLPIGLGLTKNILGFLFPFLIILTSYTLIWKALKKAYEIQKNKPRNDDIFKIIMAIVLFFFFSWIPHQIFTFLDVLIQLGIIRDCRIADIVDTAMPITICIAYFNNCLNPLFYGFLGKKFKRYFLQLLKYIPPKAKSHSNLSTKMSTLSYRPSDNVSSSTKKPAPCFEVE

[14] = test system: Streptococcus; test: Group A Streptococcus viability loss, dose response, counter-screen for streptokinase expression inhibitor project, luminescence, BacTiterGlo (AID 1915); assay type: functional, organism-based;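 also: potency for reduction of bacterial viability or growth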
[15] = Shn3 3'UTR reporter inhibitors, dose response, cell-based, Clone20 osteoblasts, firefly luciferase, cherry-picked (AID 624132); assay type: functional;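 also: firefly luciferase luminescence from reporter carrying the Shn3 3'UTR in osteoblasts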
[16] = HepG2 cell cytotoxicity, dose response, cytotoxicity control for Shn3 inhibitor project, CellTiter-Glo, cherry-picked (AID 624134); assay type: functional, cell-based
[17] = control 3'UTR Renilla luciferase suppression, dose response, counter-screen for Shn3 inhibitor project, cell-based, Clone20-Shn3RL, cherry-picked (AID 624133); assay type: functional
[18] = test system: HeLa; test: HeLa cell cytotoxicity, dose response, cytotoxicity control for MITF activator project, CellTiter-Glo luminescence, cherry-pick samples (AID 540259); assay type: functional, cell-based; conditions: Homo sapiens
[19] = molecular target: Ras and Rab interactor 1/Tyrosine-protein kinase ABL1 (Homo sapiens, UniProt P00519+Q13671); assay type: functional;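 also: biochemical TR-FRET dose-response test measuring inhibition of binding between Rin1 and Abl proteins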
Ras and Rab interactor 1/Tyrosine-protein kinase ABL1, sequence (P00519 whole entry): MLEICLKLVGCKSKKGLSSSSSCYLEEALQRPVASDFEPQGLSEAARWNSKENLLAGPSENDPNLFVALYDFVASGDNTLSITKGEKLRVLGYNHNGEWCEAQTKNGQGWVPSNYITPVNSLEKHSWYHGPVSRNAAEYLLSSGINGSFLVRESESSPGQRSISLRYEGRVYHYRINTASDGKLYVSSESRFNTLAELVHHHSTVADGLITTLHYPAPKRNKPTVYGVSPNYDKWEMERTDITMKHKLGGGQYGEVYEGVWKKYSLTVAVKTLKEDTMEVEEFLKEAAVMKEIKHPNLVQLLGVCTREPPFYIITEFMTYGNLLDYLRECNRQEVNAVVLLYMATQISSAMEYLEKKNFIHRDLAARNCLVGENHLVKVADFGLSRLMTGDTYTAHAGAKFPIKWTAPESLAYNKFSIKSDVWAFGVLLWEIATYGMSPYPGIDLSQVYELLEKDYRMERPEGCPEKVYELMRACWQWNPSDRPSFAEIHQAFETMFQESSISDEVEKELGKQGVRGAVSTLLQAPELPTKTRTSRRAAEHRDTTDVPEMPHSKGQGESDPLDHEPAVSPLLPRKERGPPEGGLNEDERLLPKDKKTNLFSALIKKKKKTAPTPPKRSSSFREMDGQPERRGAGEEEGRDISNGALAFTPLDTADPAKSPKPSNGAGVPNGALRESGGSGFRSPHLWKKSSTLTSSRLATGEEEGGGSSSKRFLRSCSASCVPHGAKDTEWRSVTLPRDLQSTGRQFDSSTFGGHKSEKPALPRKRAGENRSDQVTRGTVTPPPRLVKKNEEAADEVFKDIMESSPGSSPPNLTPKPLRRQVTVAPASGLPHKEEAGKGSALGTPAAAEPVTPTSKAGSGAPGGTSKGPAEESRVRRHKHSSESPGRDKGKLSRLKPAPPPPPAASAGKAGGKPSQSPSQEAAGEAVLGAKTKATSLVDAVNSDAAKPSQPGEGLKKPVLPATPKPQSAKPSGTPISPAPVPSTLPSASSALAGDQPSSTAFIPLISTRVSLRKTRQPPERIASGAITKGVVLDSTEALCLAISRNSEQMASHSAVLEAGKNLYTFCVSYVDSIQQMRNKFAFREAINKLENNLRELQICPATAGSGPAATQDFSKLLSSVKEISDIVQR
Ras and Rab interactor 1/Tyrosine-protein kinase ABL1, sequence (Q13671 whole entry): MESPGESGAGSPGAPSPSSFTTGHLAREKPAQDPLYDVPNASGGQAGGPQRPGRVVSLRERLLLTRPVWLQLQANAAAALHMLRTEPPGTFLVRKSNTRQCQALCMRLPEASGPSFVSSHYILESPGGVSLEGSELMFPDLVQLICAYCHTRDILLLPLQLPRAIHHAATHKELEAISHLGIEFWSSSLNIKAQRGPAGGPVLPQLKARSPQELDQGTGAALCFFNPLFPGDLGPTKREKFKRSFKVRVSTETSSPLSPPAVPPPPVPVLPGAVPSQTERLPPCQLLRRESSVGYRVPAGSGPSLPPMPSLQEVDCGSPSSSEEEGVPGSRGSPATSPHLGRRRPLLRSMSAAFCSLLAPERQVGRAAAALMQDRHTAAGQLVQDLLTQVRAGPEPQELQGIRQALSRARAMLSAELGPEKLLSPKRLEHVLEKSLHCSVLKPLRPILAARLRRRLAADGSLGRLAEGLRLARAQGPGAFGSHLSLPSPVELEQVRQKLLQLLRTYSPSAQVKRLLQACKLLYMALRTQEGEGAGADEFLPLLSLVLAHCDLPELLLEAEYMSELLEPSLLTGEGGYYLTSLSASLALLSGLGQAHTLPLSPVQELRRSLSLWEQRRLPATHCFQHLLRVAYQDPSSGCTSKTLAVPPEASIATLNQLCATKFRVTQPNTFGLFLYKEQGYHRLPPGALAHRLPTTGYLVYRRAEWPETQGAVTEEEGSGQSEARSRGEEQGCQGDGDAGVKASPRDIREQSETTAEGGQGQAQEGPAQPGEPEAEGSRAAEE

[20] = molecular target: Melanocortin receptor 4 (Homo sapiens, UniProt P32245); test: MC4R antagonist potency on cAMP, dose response, cell-based, TR-FRET, biased antagonists (AID 602298); assay type: functional;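 also: antagonist potency against agonist-stimulated cAMP production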
Melanocortin receptor 4, sequence (P32245 whole entry): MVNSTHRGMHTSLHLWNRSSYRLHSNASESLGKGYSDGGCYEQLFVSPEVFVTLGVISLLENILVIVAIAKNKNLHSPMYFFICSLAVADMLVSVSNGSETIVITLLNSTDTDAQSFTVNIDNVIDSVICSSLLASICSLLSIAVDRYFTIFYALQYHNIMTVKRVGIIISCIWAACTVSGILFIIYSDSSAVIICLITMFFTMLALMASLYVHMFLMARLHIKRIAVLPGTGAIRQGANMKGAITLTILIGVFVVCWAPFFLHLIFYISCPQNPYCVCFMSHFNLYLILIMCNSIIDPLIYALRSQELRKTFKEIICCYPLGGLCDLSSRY

[21] = nonselective inhibitors of cellular cAMP signaling, dose response, counter-screen for MC4R biased antagonist project, cell-based, TR-FRET cAMP detection (AID 602305); assay type: functional;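 also: U2OS cells stimulated with forskolin near its EC80 as the cAMP inducer; potency is for inhibition of forskolin-stimulated cAMP signaling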
[22] = A549 cell cytotoxicity, dose response, cytotoxicity control, plate reader, cherry-pick, antagonist series (AID 743412); assay type: functional, cell-based
[23] = HepG2 cell cytotoxicity, dose response, cytotoxicity control, plate reader, cherry-pick, antagonist series (AID 743416); assay type: functional, cell-based
[24] = LGR2 antagonists, dose response, cell-based, HEK293, CRE-luciferase reporter, cherry pick, set 2 (AID 743343); assay type: functional;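 also: transfected cells were stimulated with diluted bursicon conditioned medium after compound addition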
[25] = MC4R antagonists, dose response, counter-screen for LGR2 antagonist project, cell-based, plate reader, cherry pick (AID 743444); assay type: functional;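 also: transfected HEK 293 cells stimulated with alpha-MSH peptide; potency of inhibitors of the alpha-MSH evoked signal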
[26] = HEK293 cell cytotoxicity, dose response, cytotoxicity control, plate reader, cherry-picked samples (AID 743446); assay type: functional, cell-based

## O=C(Nc1cc(S(=O)(=O)N2CCOCC2)ccc1N1CCOCC1)c1ccccc1F
[1]
  EC50: > 54.7 µM (inactive)
[2]
  EC50: > 54.7 µM (inactive)
[3]
  IC50: > 89.2 µM (inactive)
[4]
  EC50: > 54.7 µM (inactive)

## O=C(NNS(=O)(=O)c1ccc(Cl)cc1)C1CCN(Cc2ccccc2)CC1
[5]
  AC50: 1 µM (inconclusive)
[6]
  AC50: inconclusive

## Cc1ccc(CS(=O)(=O)c2ncc(Cl)c(C(=O)Nc3ccc(OC(F)F)cc3)n2)cc1
[7]
  EC50: > 120 µM (not active)
[8]
  EC50: 8.23 µM (active)
[9]
  EC50: 12.7 µM (active)
[10]
  EC50: > 40 µM (inactive)
[11]
  EC50: 18.1 µM (active)
[12]
  EC50: 2.07 µM (active)
[13]
  IC50: 11.3 µM (active)
[14]
  EC50: 22.1 µM (active)
[15]
  AC50: 2.34 µM (active)
[16]
  AC50: 61.5 µM (active)
[17]
  AC50: 13.5 µM (active)

## O=C(N=Nc1c(O)n(Cc2ccccc2)c2ccccc12)c1ccc(O)cc1
[18]
  AC50: 39.7 µM (active)

## Oc1cc(SCc2ccccc2)ncn1
[19]
  IC50: 0.514 µM (active)

## Cc1ccccc1CN1Cc2cnnn2-c2ccccc2C1C#N (configuration not stated)
[20]
  IC50: 7.25 µM (active)
[21]
  IC50: > 64.5 µM (inactive)
[22]
  AC50: 20.9 µM (active)
[23]
  AC50: 17 µM (active)
[24]
  AC50: 13.8 µM (active)
[25]
  AC50: 8.97 µM (active)
[26]
  AC50: 15.8 µM (active)

## CC/C(=N\NC(=O)c1csc(C)c1C)c1cccs1
[18]
  AC50: > 350 µM (inactive)
